How the values were obtained:
[1] = tested on: amygdala kindled rat model of partial epilepsy; assay: In Vivo, Amygdala Kindling Assay; parameters: species or system Sprague-Dawley rats; conditions: rats
Excerpt: The development of amygdala kindling is an established model of epileptogenesis. (Amano K, Hamada K, Yagi K, Seino M. Antiepileptic effects of topiramate on amygdaloid kindling in rats. Epilepsy Res. 1998 Jul;31(2):123-8; Barton M E, White H S. The effect of CGX-1007 and CI-1041, novel NMDA receptor antagonists, on kindling acquisition and expression. Epilepsy Res. 2004 Mar;59(1):1-12; Loscher W, Honack D, Rundfeldt C. Antiepileptogenic effects of the novel anticonvulsant levetiracetam (ucb L059)in the kindling model of temporal lobe epilepsy. J Pharmacol Exp Ther. 1998 Feb;284(2):474-9; McNamara J O. Analyses of the molecular basis of kindling development. Psychiatry Clin Neurosci. 1995 June; 49(3):S175-8. Review.; Morimoto K, Katayama K, Inoue K, Sato K. Effects of competitive and noncompetitive NMDA receptor antagonists on kindling and LTP. Pharmacol Biochem Behav. 1991 Dec;40(4):893-9; Racine, R. J. 1972. Modification of seizure activity by electrical stimulation. II. Motor seizure. Electroencephalogr. Clin. Neurophysiol. 32, 281-294). The kindled rat model of partial epilepsy is an accepted model of epileptogenesis (McNamara J O. Analyses of the molecular basis of kindling development. Psychiatry Clin Neurosci. 1995 Jun;49(3):S1 75-8. Review.).
Briefly, the assay procedure was as follows. Adult male, Sprague-Dawley rats weighing between 250-300 g were obtained from Charles River, Wilmington, Mass. All the animals were housed on a 12:12 light dark cycle and permitted free access to both food (Prolab RMH 3000) and water except when removed from the home cage for experimental procedures. Animals were cared for in a matter consistent with the recommendations detailed in the National Research Council Publication, “Guide for the Care and Use of Laboratory Animals” in a temperature controlled, pesticide-free facility. Kindling stimulations were routinely performed between 9 AM-2 PM to avoid any circadian variations.
Compound #8 was triturated in a small volume of 0.5% methylcellulose, sonicated for 10 min, and brought to a final volume with 0.5% methylcellulose. Compound #8 was administered systemically (i.p.) in a volume of 0.04 ml/10 g body weight and all tests were conducted at the pre-determined time of peak effect of 0.5 hours after i.p. administration.
The ability of Compound #8 to block the expression of amygdala kindled seizures was determined as follows. Rats were anaesthetized with a ketamine (120 mg/kg, i.p.) and xylazine (12 mg/kg, i.p.) cocktail. […]
Amygdala kindling was then performed according to the following protocol. […] The behavioral seizure score and AD duration was recorded for rats in each treatment group. […]

| melting point [°C] | SMILES | behavioral seizure score (Racine scale) at the conclusion of the drug- and stimulus-free period ([1]; 75 mg/kg i.p. 30 min before daily amygdala stimulation (200 μA, 2 s) for up to 13 days, re-challenge without drug after one-week drug- and stimulus-free period, vehicle=4.6±0.24) | acquisition of the full generalized kindled seizure ([1]; 75 mg/kg i.p. during kindling acquisition) | after-discharge (AD) duration over the kindling acquisition phase vs vehicle ([1]; 75 mg/kg i.p., daily stimulation, progressive increase in both groups) | delay of acquisition of kindling ([1]; stimulated in the absence of drug after the drug-free week, seizure score rose parallel to vehicle) |
| --- | --- | --- | --- | --- | --- |
|  | NS(=O)(=O)NC[C@H]1COc2cc(Cl)ccc2O1 [Compound #8, (2S)-(−)-N-(6-Chloro-2,3-dihydro-benzo[1,4]dioxin-2-ylmethyl)-sulfamide] | 1.4±0.40 | prevented the acquisition of the full generalized kindled seizure | No statistical difference between treatment groups | delayed the acquisition of kindling by several days |
| 100 to 101 | NS(=O)(=O)NCC1CCc2ccccc2O1 (centres unmarked) [Compound #10, Chroman-2-ylmethylsulfamide] |  |  |  |  |
